Laboratory results reported in ChEMBL document CHEMBL4152247, “Discovery of novel 2,4-diarylaminopyrimidine derivatives as potent and selective epidermal growth factor receptor (EGFR) inhibitors against L858R/T790M resistance mutation” (Eur J Med Chem, 2018).

molecular target: Epidermal growth factor receptor (Homo sapiens, UniProt P00533, L858R/T790M); assay: Inhibition of recombinant human GST-tagged EGFR T790M/L858R double mutant expressed in baculovirus expression system using poly (Glu, Tyr) 4:1 as substrate after 1 hr by ELISA
Sequence (P00533 25-1210 T790M/L858R limits assumed): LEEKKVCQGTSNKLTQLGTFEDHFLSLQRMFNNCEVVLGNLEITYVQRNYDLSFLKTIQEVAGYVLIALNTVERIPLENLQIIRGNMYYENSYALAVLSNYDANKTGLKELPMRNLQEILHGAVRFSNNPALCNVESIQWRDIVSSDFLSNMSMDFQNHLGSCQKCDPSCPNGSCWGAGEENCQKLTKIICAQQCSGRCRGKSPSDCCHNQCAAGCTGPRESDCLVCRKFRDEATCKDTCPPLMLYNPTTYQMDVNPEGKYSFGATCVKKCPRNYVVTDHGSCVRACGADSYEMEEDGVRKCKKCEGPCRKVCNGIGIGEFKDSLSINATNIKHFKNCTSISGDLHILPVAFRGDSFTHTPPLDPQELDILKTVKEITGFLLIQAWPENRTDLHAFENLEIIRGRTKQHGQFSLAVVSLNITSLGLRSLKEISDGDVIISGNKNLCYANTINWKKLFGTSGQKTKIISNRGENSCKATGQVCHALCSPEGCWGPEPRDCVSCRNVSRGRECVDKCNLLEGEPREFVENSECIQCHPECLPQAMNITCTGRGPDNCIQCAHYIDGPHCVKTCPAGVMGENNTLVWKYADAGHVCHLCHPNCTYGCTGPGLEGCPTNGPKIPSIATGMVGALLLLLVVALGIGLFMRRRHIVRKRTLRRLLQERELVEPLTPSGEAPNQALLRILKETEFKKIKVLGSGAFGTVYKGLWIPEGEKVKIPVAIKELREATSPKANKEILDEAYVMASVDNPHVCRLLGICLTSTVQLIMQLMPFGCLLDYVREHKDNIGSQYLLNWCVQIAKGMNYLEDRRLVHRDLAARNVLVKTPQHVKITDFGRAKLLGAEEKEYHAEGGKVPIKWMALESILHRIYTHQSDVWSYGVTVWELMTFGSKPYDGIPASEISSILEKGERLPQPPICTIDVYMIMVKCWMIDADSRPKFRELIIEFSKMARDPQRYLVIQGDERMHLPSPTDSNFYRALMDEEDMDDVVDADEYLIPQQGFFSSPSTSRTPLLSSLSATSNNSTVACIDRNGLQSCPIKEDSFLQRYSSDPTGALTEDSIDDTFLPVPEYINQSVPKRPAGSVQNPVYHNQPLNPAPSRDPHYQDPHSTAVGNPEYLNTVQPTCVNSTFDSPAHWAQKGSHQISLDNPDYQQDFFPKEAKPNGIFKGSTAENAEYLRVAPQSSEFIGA

SMILES	IC50 [nM]
C=CC(=O)Nc1cc(Nc2nccc(Nc3ccccc3-n3nccn3)n2)c(OC)cc1N1CCN(C)CC1	175
C=CC(=O)Nc1cc(Nc2nccc(Nc3ccccc3-c3ccn(C)n3)n2)c(OC)cc1N1CCOCC1	> 1000
C=CC(=O)Nc1cc(Nc2nccc(Nc3ccccc3-n3nccn3)n2)c(OC)cc1N1CCOCC1	838
C=CC(=O)Nc1cc(Nc2nccc(Nc3ccccc3-n3cccn3)n2)c(OC)cc1N1CCN(C)CC1	143
C=CC(=O)Nc1cc(Nc2nccc(Nc3ccccc3-c3ccn(C)n3)n2)c(OC)cc1N1CCN(C)CC1	> 1000
C=CC(=O)Nc1cc(Nc2nccc(Nc3ccccc3-n3cccn3)n2)c(OC)cc1N1CCOCC1	> 1000
C=CC(=O)Nc1cc(Nc2nccc(Nc3ccccc3-c3ccn(C)n3)n2)c(OC)cc1N1CCC(N(C)C)CC1	38.5

molecular target: Epidermal growth factor receptor (Homo sapiens, UniProt P00533); assay: Inhibition of recombinant human GST-tagged wild type EGFR expressed in baculovirus expression system using poly (Glu, Tyr) 4:1 as substrate after 1 hr by ELISA
Sequence (P00533 whole entry): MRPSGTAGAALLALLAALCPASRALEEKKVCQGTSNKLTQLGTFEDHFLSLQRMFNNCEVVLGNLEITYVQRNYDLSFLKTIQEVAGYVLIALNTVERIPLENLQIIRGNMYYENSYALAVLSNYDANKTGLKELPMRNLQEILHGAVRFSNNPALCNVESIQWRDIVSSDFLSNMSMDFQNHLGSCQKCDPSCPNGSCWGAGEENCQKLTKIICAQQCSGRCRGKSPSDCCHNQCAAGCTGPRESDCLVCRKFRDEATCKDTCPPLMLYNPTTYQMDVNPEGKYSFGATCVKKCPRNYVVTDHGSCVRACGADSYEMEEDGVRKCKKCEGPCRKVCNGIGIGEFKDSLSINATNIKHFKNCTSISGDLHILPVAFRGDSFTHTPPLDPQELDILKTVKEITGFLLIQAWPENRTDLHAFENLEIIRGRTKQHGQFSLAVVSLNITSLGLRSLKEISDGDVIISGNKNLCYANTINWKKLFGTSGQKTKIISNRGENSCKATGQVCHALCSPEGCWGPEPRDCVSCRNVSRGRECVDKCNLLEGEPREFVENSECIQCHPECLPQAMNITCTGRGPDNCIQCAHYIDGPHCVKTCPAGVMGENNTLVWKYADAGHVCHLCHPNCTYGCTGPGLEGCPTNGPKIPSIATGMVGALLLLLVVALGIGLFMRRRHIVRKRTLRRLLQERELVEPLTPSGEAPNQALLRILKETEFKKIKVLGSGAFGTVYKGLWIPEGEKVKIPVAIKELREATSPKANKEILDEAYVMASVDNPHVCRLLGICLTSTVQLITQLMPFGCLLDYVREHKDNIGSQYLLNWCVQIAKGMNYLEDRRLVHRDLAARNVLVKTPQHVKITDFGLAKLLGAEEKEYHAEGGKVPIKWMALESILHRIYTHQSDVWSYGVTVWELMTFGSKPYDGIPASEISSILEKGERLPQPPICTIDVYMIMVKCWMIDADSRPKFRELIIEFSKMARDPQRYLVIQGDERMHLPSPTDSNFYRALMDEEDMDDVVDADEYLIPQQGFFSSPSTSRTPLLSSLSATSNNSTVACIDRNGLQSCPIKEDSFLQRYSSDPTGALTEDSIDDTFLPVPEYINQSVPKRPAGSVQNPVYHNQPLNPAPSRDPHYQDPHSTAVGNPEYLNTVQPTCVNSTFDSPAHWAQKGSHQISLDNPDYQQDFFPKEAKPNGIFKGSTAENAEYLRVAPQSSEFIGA

SMILES	IC50 [nM]
C=CC(=O)Nc1cc(Nc2nccc(Nc3ccccc3-n3nccn3)n2)c(OC)cc1N1CCN(C)CC1	> 1000
C=CC(=O)Nc1cc(Nc2nccc(Nc3ccccc3-c3ccn(C)n3)n2)c(OC)cc1N1CCOCC1	> 1000
C=CC(=O)Nc1cc(Nc2nccc(Nc3ccccc3-n3nccn3)n2)c(OC)cc1N1CCOCC1	> 1000
C=CC(=O)Nc1cc(Nc2nccc(Nc3ccccc3-n3cccn3)n2)c(OC)cc1N1CCN(C)CC1	> 1000
C=CC(=O)Nc1cc(Nc2nccc(Nc3ccccc3-c3ccn(C)n3)n2)c(OC)cc1N1CCN(C)CC1	> 1000
C=CC(=O)Nc1cc(Nc2nccc(Nc3ccccc3-n3cccn3)n2)c(OC)cc1N1CCOCC1	> 1000
C=CC(=O)Nc1cc(Nc2nccc(Nc3ccccc3-c3ccn(C)n3)n2)c(OC)cc1N1CCC(N(C)C)CC1	> 1000
